These results are taken from patent US11142526B2, “Spirocycle compounds and methods of making and using same” (H. Lundbeck A/S, priority 2017, dated 2021).

Assay [1] addresses T1, MAGL (Mus musculus (Mouse), UniProt O35678). Kind of assay: Mouse brain proteomes from inhibitor treated mice (oral gavage, brain MAGL activity 4 h after administration). The format is in vivo. The conditions noted are these: 5 mg/kg oral gavage. The method, then:
Preparation of Mouse Brain Proteomes from Inhibitor Treated Mice.
Inhibitors were administered to wild-type C57B1/6J by oral gavage in a vehicle of polyethylene glycol.

For assay [2], the target named is T1, MAGL. Kind of assay: In vitro competitive activity-based protein profiling, mouse brain proteome. The format is biochemical. The conditions noted are these: for inhibition at 1 µM: mouse; for IC50: mouse brain.
Assay [3] concerns the target MAGL (Homo sapiens (Human), UniProt Q99685). Kind of assay: In vitro competitive activity-based protein profiling (gel-based, FP-Rh or HT-01 probe). The format is biochemical. As for the experimental part: In Vitro Competitive Activity-Based Protein Profiling.
Proteomes (human prefrontal cortex or cell membrane fractions) (50 μL, 1.0 mg/mL total protein concentration) were preincubated with varying concentrations of inhibitors at 37° C. After 30 min, FP-Rh or HT-01 (1.0 μL, 50 μM in DMSO) was added and the mixture was incubated for another 30 min at room temperature. Reactions were quenched with SDS loading buffer (15 μL—4×) and run on SDS-PAGE.

Setting [4] is: human PC3, read-out: MAGL % Inhibition at 1 μM (human PC3).
Where [5] appears, read: human PFC (prefrontal cortex), read-out: MAGL % Inhibition at 1 μM (human PFC).

Like-named read-outs stand apart in the source and are kept apart here.

T1 sequence (O35678 whole entry): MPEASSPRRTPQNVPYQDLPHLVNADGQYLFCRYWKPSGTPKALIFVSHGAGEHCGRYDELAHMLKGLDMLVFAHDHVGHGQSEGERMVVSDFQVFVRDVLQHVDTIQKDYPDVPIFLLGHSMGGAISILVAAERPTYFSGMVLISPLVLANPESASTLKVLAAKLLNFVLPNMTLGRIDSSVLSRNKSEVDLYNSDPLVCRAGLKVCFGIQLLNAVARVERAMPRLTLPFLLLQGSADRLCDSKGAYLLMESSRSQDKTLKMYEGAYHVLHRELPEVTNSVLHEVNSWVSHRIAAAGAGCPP
Chain of MAGL (Homo sapiens (Human), UniProt Q99685) (Q99685 whole entry): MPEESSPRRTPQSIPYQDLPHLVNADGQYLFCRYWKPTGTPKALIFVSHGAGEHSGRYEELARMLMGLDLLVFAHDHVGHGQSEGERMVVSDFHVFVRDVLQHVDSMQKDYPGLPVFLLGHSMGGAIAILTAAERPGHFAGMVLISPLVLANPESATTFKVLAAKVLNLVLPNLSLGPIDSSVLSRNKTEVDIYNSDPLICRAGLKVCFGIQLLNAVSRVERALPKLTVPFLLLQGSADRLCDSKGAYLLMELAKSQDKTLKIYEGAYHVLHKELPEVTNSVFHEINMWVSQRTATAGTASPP

As to `CC(C)n1cc(CN2CCC3(CCN(C(=O)OC(C(F)(F)F)C(F)(F)F)CC3)C2)c(-c2ccccc2)n1` [Example 6, 1,1,1,3,3,3-Hexafluoropropan-2-yl 2-((1-isopropyl-3-phenyl-1H-pyrazol-4-yl)methyl)-2,8-diazaspiro[4.5]decane-8-carboxylate], the “MAGL % Inhibition at 5 mg/kg (Mouse)” value at MAGL [1] was “## (% inhibition is less than 75% and greater than 25%)”. For the same molecule, at MAGL [2], the inhibition at 1 µM was above 75% and the IC50 was below 100 nM.
Take `CCc1cc(CN2CCC3(CCN(C(=O)OC(C(F)(F)F)C(F)(F)F)CC3)C2)n(C2CCOCC2)n1` [Example 7, 1,1,1,3,3,3-Hexafluoropropan-2-yl 2-((3-ethyl-1-(tetrahydro-2H-pyran-4-yl)-1H-pyrazol-5-yl)methyl)-2,8-diazaspiro[4.5]decane-8-carboxylate]: on MAGL [1], the “MAGL % Inhibition at 5 mg/kg (Mouse)” value was “### (% inhibition is greater than or equal to 75%)”. Further, at MAGL [2], the inhibition at 1 µM was above 75% and the IC50 is below 100 nM.
The like results for `O=C(OC(C(F)(F)F)C(F)(F)F)N1CCC2(CCCN2Cc2cc3c(Cl)cc(Cl)cc3[nH]2)CC1` [Example 11, 1,1,1,3,3,3-Hexafluoropropan-2-yl 1-((4,6-dichloro-1H-indol-2-yl)methyl)-1,8-diazaspiro[4.5]decane-8-carboxylate] were, in that order, “### (% inhibition is greater than or equal to 75%)”, above 75% and below 100 nM.
Regarding `O=C(OC(C(F)(F)F)C(F)(F)F)N1CCC2(CCCN2C(=O)c2cc3cc(Cl)cc(Cl)c3[nH]2)CC1` [Example 16, 1,1,1,3,3,3-Hexafluoropropan-2-yl 1-(5,7-dichloro-1H-indole-2-carbonyl)-1,8-diazaspiro[4.5]decane-8-carboxylate], the “MAGL % Inhibition at 5 mg/kg (Mouse)” value at MAGL [1] is “### (% inhibition is greater than or equal to 75%)”. For the same molecule, at MAGL [2], the inhibition at 1 µM is above 75% and the IC50 was below 100 nM.
The corresponding values for `O=C(OC(C(F)(F)F)C(F)(F)F)N1CCC2(CCCN2Cc2cc3cc(C(F)(F)F)ccc3s2)CC1` [Example 41, 1,1,1,3,3,3-Hexafluoropropan-2-yl 1-((5-(trifluoromethyl)benzo[b]thiophen-2-yl)methyl)-1,8-diazaspiro[4.5] decane-8-carboxylate] are “### (% inhibition is greater than or equal to 75%)”, above 75% and below 100 nM.
For the molecule `O=C(OC(C(F)(F)F)C(F)(F)F)N1CCC2(CCCN2Cc2sc3ccccc3c2Cl)CC1` [Example 42, 1,1,1,3,3,3-Hexafluoropropan-2-yl 1-((3-chlorobenzo[b]thiophen-2-yl)methyl)-1,8-diazaspiro[4.5] decane-8-carboxylate], the “MAGL % Inhibition at 5 mg/kg (Mouse)” value at MAGL [1] is “### (% inhibition is greater than or equal to 75%)”. Further, on MAGL [2], the inhibition at 1 µM is above 75% and the IC50 was below 100 nM.
Take `Cc1c(CN2CCCC23CCN(C(=O)OC(C(F)(F)F)C(F)(F)F)CC3)sc2ccccc12` [Example 43, 1,1,1,3,3,3-Hexafluoropropan-2-yl 1-((3-methylbenzo[b]thiophen-2-yl)methyl)-1,8-diazaspiro[4.5] decane-8-carboxylate]: the “MAGL % Inhibition at 5 mg/kg (Mouse)” value on MAGL [1] was “### (% inhibition is greater than or equal to 75%)”. The IC50 on MAGL [2] was below 100 nM.
`COc1ccc(-c2cc(CN3CCCC34CCN(C(=O)OC(C(F)(F)F)C(F)(F)F)CC4)no2)cc1` [Example 46, 1,1,1,3,3,3-Hexafluoropropan-2-yl 1-((5-(4-methoxyphenyl)isoxazol-3-yl)methyl)-1,8-diazaspiro[4.5] decane-8-carboxylate]: at MAGL [1], the “MAGL % Inhibition at 5 mg/kg (Mouse)” value is “## (% inhibition is less than 75% and greater than 25%)”. Also, the IC50 at MAGL [2] is below 100 nM.
Take `O=C(OC(C(F)(F)F)C(F)(F)F)N1CCC2(CCN(Cc3cc4cc(Cl)ccc4s3)C2)CC1` [Example 51, 1,1,1,3,3,3-Hexafluoropropan-2-yl 2-((5-chlorobenzo[b]thiophen-2-yl)methyl)-2,8-diazaspiro[4.5] decane-8-carboxylate]: the “MAGL % Inhibition at 5 mg/kg (Mouse)” value at MAGL [1] was “### (% inhibition is greater than or equal to 75%)”. In addition, on MAGL [2], the inhibition at 1 µM is above 75% and the IC50 was below 100 nM.
Consider `O=C(OC(C(F)(F)F)C(F)(F)F)N1CCC2(CCCN2Cc2cc3cc(F)ccc3[nH]2)CC1` [Example 52, 1,1,1,3,3,3-Hexafluoropropan-2-yl 1-((5-fluoro-1H-indol-2-yl)methyl)-1,8-diazaspiro[4.5] decane-8-carboxylate], for which, at MAGL [1], the “MAGL % Inhibition at 5 mg/kg (Mouse)” value is “### (% inhibition is greater than or equal to 75%)”. At MAGL [2], the inhibition at 1 µM was above 75% and the concentration for half-maximal inhibition (IC50) was below 100 nM.
The like results for `O=C(OC(C(F)(F)F)C(F)(F)F)N1CCC2(CCCN2Cc2ccc3ccccc3n2)CC1` [Example 54, 1,1,1,3,3,3-Hexafluoropropan-2-yl 1-(quinolin-2-ylmethyl)-1,8-diazaspiro [4.5]decane-8-carboxylate] were, in that order, “### (% inhibition is greater than or equal to 75%)”, above 75% and below 100 nM.
Turning to `Cc1ccc2sc(CN3CCCC34CCN(C(=O)OC(C(F)(F)F)C(F)(F)F)CC4)cc2c1` [Example 61, 1,1,1,3,3.3-Hexafluoropropan-2-yl 1-((5-methylbenzo[b]thiophen-2-yl)methyl)-1,8-diazaspiro[4.5] decane-8-carboxylate], on MAGL [1], the “MAGL % Inhibition at 5 mg/kg (Mouse)” value is reported as “### (% inhibition is greater than or equal to 75%)”. At MAGL [2], this molecule returned an inhibition at 1 µM above 75% and an IC50 below 100 nM.
Turning to `O=C(OC(C(F)(F)F)C(F)(F)F)N1CCC2(CCCN2C(=O)c2ccc3occc3c2)CC1` [Example 77, 1,1,1,3,3,3-Hexafluoropropan-2-yl 1-(benzofuran-5-carbonyl)-1,8-diazaspiro[4.5] decane-8-carboxylate], at MAGL [1], the “MAGL % Inhibition at 5 mg/kg (Mouse)” value is listed as “### (% inhibition is greater than or equal to 75%)”. At MAGL [2], this molecule returned an inhibition at 1 µM above 75% and an IC50 below 100 nM.
The corresponding values for `O=C(OC(C(F)(F)F)C(F)(F)F)N1CCC2(CCCN2C(=O)c2cc3cc(Cl)ccc3[nH]2)CC1` [Example 93, 1,1,1,3,3.3-Hexafluoropropan-2-yl 1-(5-chloro-1H-indole-2-carbonyl)-1,8-diazaspiro[4.5] decane-8-carboxylate] are “### (% inhibition is greater than or equal to 75%)”, above 75% and below 100 nM.
Turning to `O=C(OC(C(F)(F)F)C(F)(F)F)N1CCC2(CCCN2C(=O)c2cc3ccc(C(F)(F)F)cc3s2)CC1` [Example 101, 1,1,1,3,3,3-Hexafluoropropan-2-yl 1-(6-(trifluoromethyl)benzo[b]thiophene-2-carbonyl)-1,8-diazaspiro[4.5] decane-8-carboxylate], the “MAGL % Inhibition at 5 mg/kg (Mouse)” value on MAGL [1] is recorded as “### (% inhibition is greater than or equal to 75%)”. At MAGL [2], this molecule returned an inhibition at 1 µM above 75% and an IC50 below 100 nM.
For the molecule `O=C(OC(C(F)(F)F)C(F)(F)F)N1CCC2(CCCN2C(=O)c2cc3cc(C(F)(F)F)ccc3s2)CC1` [Example 102, 1,1,1,3,3,3-Hexafluoropropan-2-yl 1-(5-(trifluoromethyl)benzo[b]thiophene-2-carbonyl)-1,8-diazaspiro[4.5] decane-8-carboxylate], the “MAGL % Inhibition at 5 mg/kg (Mouse)” value at MAGL [1] is recorded as “### (% inhibition is greater than or equal to 75%)”. Besides, at MAGL [2], the inhibition at 1 µM was above 75% and the IC50 is below 100 nM.
Turning to `O=C(OC(C(F)(F)F)C(F)(F)F)N1CCC2(CCCN2C(=O)c2cc3cccc(Cl)c3s2)CC1` [Example 105, 1,1,1,3,3,3-Hexafluoropropan-2-yl 1-(7-chlorobenzo[b]thiophene-2-carbonyl)-1,8-diazaspiro[4.5] decane-8-carboxylate], the “MAGL % Inhibition at 5 mg/kg (Mouse)” value on MAGL [1] is on record as “### (% inhibition is greater than or equal to 75%)”. Moreover, at MAGL [2], the inhibition at 1 µM is above 75% and the IC50 is below 100 nM.
`CC1(NC(=O)c2nnc3n2CCN(C2CCC2)C3)CCN(C(=O)OC(C(F)(F)F)C(F)(F)F)CC1` [Example 205, 1,1,1,3,3,3-Hexafluoropropan-2-yl 4-(7-cyclobutyl-5,6,7,8-tetrahydro-[1,2,4]triazolo[4,3-a]pyrazine-3-carboxamido)-4-methylpiperidine-1-carboxylate]: the inhibition at 1 µM on MAGL [3] (setting [4]), at MAGL [3] (setting [5]) and on MAGL [2] was above 75% each time. The IC50 at MAGL [3] (human PC3, read-out: MAGL Human PC3 (IC50)) was below 100 nM.
Turning to `CN(C(=O)c1nnc2n1CCNC2)C1(C)CCN(C(=O)OC(C(F)(F)F)C(F)(F)F)CC1` [Example 210, 1,1,1,3,3,3-Hexafluoropropan-2-yl 4-methyl-4-(N-methyl-5,6,7,8-tetrahydro-[1,2,4]triazolo [4,3-a]pyrazine-3-carboxamido) piperidine-1-carboxylate], the inhibition at 1 µM is 25 to 75% at MAGL [3] (setting [4]), above 75% at MAGL [3] (setting [5]) and 25 to 75% on MAGL [2].
With `COCCN(C(=O)C1(c2ncccn2)CC1)C1(C)CCN(C(=O)OC(C(F)(F)F)C(F)(F)F)CC1` [Example 212, 1,1,1,3,3,3-hexafluoropropan-2-yl 4-(N-(2-methoxyethyl)-1-(pyrimidin-2-yl)cyclopropane-1-carboxamido)-4-methylpiperidine-1-carboxylate], the inhibition at 1 µM on MAGL [3] (setting [4]), on MAGL [3] (setting [5]) and on MAGL [2] was above 75% in each case.
